Results reported in paper PMC8566451, “Lead optimization of novel quinolone chalcone compounds by a structure–activity relationship (SAR) study to increase efficacy and metabolic stability” (Scientific Reports, 2021).

What was measured:
MDA-MB231 = experiment: Sulforhodamine B (SRB) assay; format: cell-based; conditions: Homo sapiens, MDA-MB-231; for GI50: MDA-MB231 breast cancer cells, 48 h, SRB; for IC50: Supplementary Table S1, SRB
Protocol: (§1) The human MDA-MB-231, MCF7, MDA-MB-468, RPMI-8226 and HeLa cell lines were purchased from ATCC and maintained in Dulbecco's Modified Eagle Medium (DMEM)—high glucose supplemented with 10% fetal bovine serum (FBS) and antibiotics/antimycotics. Cell line authentication was carried out by Genetica DNA Laboratories (Burlington, NC) using a short tandem repeat (STR) profiling method (March 2015; July 2015; September 2016). Melanoma cells E-055 (MZ-Mel-3), E-097 (Mel-SOE), E-112 (UKRV-Mel-38), E-157 (UKRV-Mel-17) were obtained from the European Searchable Tumour Line Database (ESTDAB) cell bank (a kind gift of Dr. Graham Pawelec, Tubingen University, Germany). MDA-MB-435 was purchased from the Division of Cancer Treatment and Diagnosis Tumor Repository. All melanoma cells were cultured in Roswell Park Memorial Institute (RPMI) medium supplemented with 10% FBS and P/S/antimycotics. Primary human epidermal melanocytes from normal adult abdominal skin were purchased from ATCC (cat # PCS-200–013) and Cell Applications (cat#104-05a). The melanocytes were cultured in the media supplied by the companies.
(§2) The SRB assay was used to assess drug-induced cytotoxicity and cell proliferation as previously described[2],[33],[34] with a few modifications. Briefly, cells were plated 10,000 to 25,000 cells/cm^2 in 96-well plates (100 µl medium) and allowed to adhere overnight. The cell counts were different for each cell line to ensure optimal cell growth for the duration of the assay. Eight different concentrations of compound solutions using 2–4 times serial dilutions (100 µl). Cells were then incubated for an additional 48 h and then fixed with 100 µl ice-cold 10% (w/v) trichloroacetic acid (TCA) (without removing the cell medium, final concentration, 3.3% of TCA) and stained with 0.4% SRB (w/v) in 1% acetic acid (v/v). The relative growth rate (%) was calculated for each of the compound concentrations according to the following formula: 100 * (T − T0)/(C − T0), in which T is the optical density (OD) after exposure to a certain concentration of the compound after 48 h, T0 is the OD at the start of drug exposure (time zero) and C is the control growth. The GI50 for each compound was obtained from a non-linear sigmoidal dose–response (variable slope) curve fitted by GraphPad Prism v.4.03 software.

UKRV-Mel-17 = experiment: Sulforhodamine B (SRB) assay; format: cell-based; conditions: UKRV-Mel-17 melanoma cells, 48 h
Protocol: as §1, §2

MDA-MB435 = experiment: Sulforhodamine B (SRB) assay; format: cell-based; conditions: Homo sapiens, MDA-MB-435, MDA-MB435 cells, 48 h
Protocol: as §1, §2

UKRV-Mel-38 = experiment: Sulforhodamine B (SRB) assay; format: cell-based; conditions: UKRV-Mel-38 melanoma cells, 48 h
Protocol: as §1, §2

MCF7 = experiment: Sulforhodamine B (SRB) assay; format: cell-based; conditions: Homo sapiens; for IC50: MCF7, Supplementary Table S1, SRB; for GI50: MCF7 breast cancer cells, 48 h, SRB
Protocol: as §1, §2

MZ-Mel-3 = experiment: Sulforhodamine B (SRB) assay; format: cell-based; conditions: MZ-Mel-3 melanoma cells, 48 h
Protocol: as §1, §2

Mel-SOE = experiment: Sulforhodamine B (SRB) assay; format: cell-based; conditions: Mel-SOE melanoma cells, 48 h
Protocol: as §1, §2

HeLa = experiment: Sulforhodamine B (SRB) assay; format: cell-based; conditions: Homo sapiens; for IC50: HeLa, Supplementary Table S1, SRB; for GI50: HeLa cervical cancer cells, 48 h, SRB
Protocol: as §1, §2

MDA-MB468 = experiment: Sulforhodamine B (SRB) assay; format: cell-based; conditions: Homo sapiens, MDA-MB-468, MDA-MB468 breast cancer cells, 48 h
Protocol: as §1, §2

RPMI-8226 = experiment: Sulforhodamine B (SRB) assay; format: cell-based; conditions: Homo sapiens, Supplementary Table S1, SRB
Protocol: as §1, §2

[1] = Microsome metabolism assay; format: in vitro ADME, human; conditions: for half-life at 5 µM: human microsomes (20 mg/ml protein), NADPH, 120 min
Protocol: (a) CTR-21 is much more metabolically stable than CTR-32. 5 µM of CTR-21 or CTR-32 were incubated with human microsomes (20 mg/ml protein) in the presence of NADPH over the course of 120 min. The lysates were analyzed and % remaining CTR compounds were identified and estimated using HPLC–MS. (b) Summary of structure–activity relationship (SAR) based on activity and metabolic stability.
Microsome metabolism assay was carried out as per manufacturer protocol (ThermoFisher), with 5 µM of starting compound. Analytes were measured on a Waters Xevo G2-XS Quadrupole Time-of-Flight mass spectrometer. Half-life was calculated using exponential one phase decay (GraphPad Prism 5). Hydroxychloroquine was used as an internal standard (500 pg/µL).

[2] = Toxicity in mice (body weight, AST/ALT); format: in vivo, mouse; conditions: for liver toxicity (AST and ALT): C57BL/6 mice, up to maximum doses 10 mg (CTR-21) and 50 mg (CTR-32); for toxicity in mice: mice treated at 10 mg/kg
Protocol: All animal experiments, including animal handling, care, treatments and endpoint determination were reviewed and approved by the Animal Care Committee (ACC) at Laurentian University (Sudbury, Ontario, Canada). We hereby confirm that all animal-based experiments were performed in compliance with relevant guidelines and regulations, including the ARRIVE guidelines (http://www.nc3rs.org.uk/page.asp?id=1357). Weight measurement and AST/ALT experiments were carried out as before.
Neither CTR-21 nor CTR-32 treatment notabl y affect ed the bod y weight of mice treated with CTR-21 or CTR-32. Mice ( C57B L/6) were inject ed (i.p.) ev er y three da ys with the indicated doses of CTR -21 or CTR-32, along with vehicle control. […]
doses used in this experiment (i.e., 10 mg and 50 mg for CTR-21 and CTR-32, respectivel y).
There is no si gnificant changes of AST and ALT between different groups , including vehicl e

SMILES | GI50 (MDA-MB231) [nM] | IC50 (MDA-MB231) [nM] | GI50 (UKRV-Mel-17) [nM] | GI50 (MDA-MB435) [nM] | GI50 (UKRV-Mel-38) [nM] | IC50 (MCF7) [nM] | GI50 (MCF7) [nM] | GI50 (MZ-Mel-3) [nM] | GI50 (Mel-SOE) [nM] | IC50 (HeLa) [nM] | GI50 (HeLa) [nM] | GI50 (MDA-MB468) [nM] | IC50 (RPMI-8226) [nM] | half-life at 5 µM [1] [min] | liver toxicity (AST and ALT) [2] | toxicity in mice [2] | also measured
CCOc1ccccc1C(=O)/C=C/c1cc2ccccc2[nH]c1=O [CTR-32, (E)-3-(3-(2-ethoxyphenyl)-3-oxoprop-1-enyl)quinolin-2(1H)-one] | 20 ± 2 | 44.2 ± 4.21 | 18 ± 3 | 13 ± 5 | 22 ± 3 | 46.4 ± 3.61 | 27 ± 6 | 6 ± 2 | 33 ± 9 | 12.9 ± 0.35 | 11 ± 2 | 26 | 6.29 ± 1.43 | 13.7 | do not show notable liver | no ill-effects observed | ALT ([2]; female C57BL/6 mice, 30 mg/kg): 103.54±61.53 U/L; AST ([2]; female C57BL/6 mice, 30 mg/kg): 253.74±117.87 U/L; AST/ALT ([2]; female C57BL/6 mice, 30 mg/kg): 2.45; ALT ([2]; female C57BL/6 mice, 50 mg/kg): 87.81±25.42 U/L; AST ([2]; female C57BL/6 mice, 50 mg/kg): 268.16±136.88 U/L; AST/ALT ([2]; female C57BL/6 mice, 50 mg/kg): 3.05; ALT ([2]; male C57BL/6 mice, 30 mg/kg): 110.30±44.56 U/L; AST ([2]; male C57BL/6 mice, 30 mg/kg): 288.49±184.97 U/L; AST/ALT ([2]; male C57BL/6 mice, 30 mg/kg): 2.62; ALT ([2]; male C57BL/6 mice, 50 mg/kg): 96.57±45.23 U/L; AST ([2]; male C57BL/6 mice, 50 mg/kg): 217.49±39.91 U/L; AST/ALT ([2]; male C57BL/6 mice, 50 mg/kg): 2.25
COc1ccccc1C(=O)/C=C/c1cc2cccc(OC)c2[nH]c1=O [CTR-21, (E)-8-methoxy-3-(3-(2-methoxyphenyl)-3-oxoprop-1-enyl) quinolin-2(1H)-one] | 17 ± 3 | 56.9 ± 10.5 | 9 ± 2 | 7 ± 2 | 13 ± 3 | 75.1 ± 3.07 | 16 ± 5 | 6 ± 1 | 27 ± 5 | 11.9 ± 1.4 | 8 ± 3 | 29 ± 10 | 5.34 ± 0.89 | 65.2 | do not show notable liver | no ill-effects observed | half-life relative to CTR-32 ([1]; human microsomes): almost five times greater; ALT ([2]; female C57BL/6 mice, 1 mg/kg): 118.03±25.82 U/L; AST ([2]; female C57BL/6 mice, 1 mg/kg): 249.47±77.12 U/L; AST/ALT ([2]; female C57BL/6 mice, 1 mg/kg): 2.12; ALT ([2]; female C57BL/6 mice, 5 mg/kg): 142.17±45.44 U/L; AST ([2]; female C57BL/6 mice, 5 mg/kg): 265.03±97.76 U/L; AST/ALT ([2]; female C57BL/6 mice, 5 mg/kg): 1.86; ALT ([2]; female C57BL/6 mice, 10 mg/kg): 142.98±45.61 U/L; AST ([2]; female C57BL/6 mice, 10 mg/kg): 319.215±101.93 U/L; AST/ALT ([2]; female C57BL/6 mice, 10 mg/kg): 2.23; ALT ([2]; male C57BL/6 mice, 1 mg/kg): 128.49±60.78 U/L; AST ([2]; male C57BL/6 mice, 1 mg/kg): 264.42±91.94 U/L; AST/ALT ([2]; male C57BL/6 mice, 1 mg/kg): 2.06; ALT ([2]; male C57BL/6 mice, 5 mg/kg): 142.71±58.30 U/L; AST ([2]; male C57BL/6 mice, 5 mg/kg): 228.82±42.23 U/L; AST/ALT ([2]; male C57BL/6 mice, 5 mg/kg): 1.60; ALT ([2]; male C57BL/6 mice, 10 mg/kg): 123.93±49.96 U/L; AST ([2]; male C57BL/6 mice, 10 mg/kg): 242.62±102.65 U/L; AST/ALT ([2]; male C57BL/6 mice, 10 mg/kg): 1.96
